Results as given in EP4610267A1, “CYCLIC DINUCLEOTIDES AND CONJUGATES THEREOF WITH ANTIBODIES” (priority 2024, dated 2025).

Tests used:
[1] = test system: STING-dependent cytokine IP10 (CXCL10) in HCC1954 cells; assay: IP10 (CXCL10) induction in HCC1954 cells; type: cell-based, human; conditions: free Warhead CDN, no antibody
Experimental: (§1) HCC1954 and 293T reporter cells were cultured as previously described. HCC1954 cells, which naturally express both Her2 and TROP2, were seeded into collagen-coated 96-well plates at a density of 0.5×10^6 cells/ml (100 µl/well) in RPMI medium supplemented with 10% FBS and Penicillin/Streptomycin. The following day, the medium was completely removed, and serial dilutions of mAb2-CDN and mAb5-CDN conjugates in medium were added to the wells. Levels of the STING-dependent cytokine IP10 (CXCL10) induction were determined in the medium using ProcartaPlex Immunoassays after 24 hours of incubation following the manufacturer's protocol and measured on a MagPix instrument. […] Nonlinear regression curve fitting was applied for EC50 value calculations. The EC50 value represents the concentration of the payload CDN 2.2 conjugated to anti-Her2 mAb2 or anti-TROP2 mAb5 that results in half-maximal levels of IP-10. Twenty million 293T WT STING reporter cells were seeded into two T150 flasks, each containing 30 mL of DMEM with high glucose supplemented with 10% heat-inactivated FBS. One flask was designated for transfected cells, and the other served as a non-transfected control. After 24 hours, the cell culture medium was replaced with 27 mL of fresh media. […] A 50 µL mixture was transferred to white 96-well plates, and luminescence was measured using a TECAN reader.

[2] = test system: AH1+ CD8+ T cells; assay: Induction of tumor specific AH1+ CD8 T cells in CT26 model (flow cytometry); type: in vivo, BALB/c mice; conditions: blood collected on day 14, i.t. treatment
From the text: The induction of tumor specific AH1+ CD8 T cells was monitored in response to Compound 2.2 treatment. Blood immune cells were collected on day 14 and red blood cells were lysed using red blood cell lysis buffer. Immune cells were immunophenotyped using viability dye (Zombie NIR Fixable Viability Kit, BioLegend) and monoclonal antibodies: BUV395 rat anti-mouse CD19, BUV395 hamster anti-mouse CD49b, APC hamster anti-mouse CD3, BV605 rat anti-mouse CD4, BV510 rat anti-mouse CD8, (all BD Biosciences). Specific staining using MHC-I dextramer: PE labelled AH1 peptide ([…], Immudex) was performed according to the manufacturer's recommendation. Specific and control samples of unstained cells, positive control for dead cells (cells in PBS incubated for 10 min at 65 °C and further stained with a live/dead marker), fluorescence minus one (FMO) and isotype controls (ISO) were prepared. Samples were measured immediately without a fixation step in a single tube format using BD LSRFortessa flow cytometer (BD Biosciences) in 250 µl of FC buffer (PBS containing 5% FBS). Data was acquired using FACS Diva software (version 8.0.1, BD Biosciences). Debris was excluded by forward and side scatter gating followed by doublet and dead cell exclusion. […] The data were analyzed using FlowJo software (version 10, BD Biosciences) and expressed as a frequency (%) of parent population, i.e. CD3+ T cells.

[3] = biological target: T1, STING WT (Homo sapiens, UniProt Q86WV6, H232R); assay: 293T STING digitonin reporter assay (WT haplotype); type: cell-based; conditions: digitonin permeabilised 293T reporter cells
T1 construct: expressed in transfected cells
T1 sequence (Q86WV6 whole entry H232R): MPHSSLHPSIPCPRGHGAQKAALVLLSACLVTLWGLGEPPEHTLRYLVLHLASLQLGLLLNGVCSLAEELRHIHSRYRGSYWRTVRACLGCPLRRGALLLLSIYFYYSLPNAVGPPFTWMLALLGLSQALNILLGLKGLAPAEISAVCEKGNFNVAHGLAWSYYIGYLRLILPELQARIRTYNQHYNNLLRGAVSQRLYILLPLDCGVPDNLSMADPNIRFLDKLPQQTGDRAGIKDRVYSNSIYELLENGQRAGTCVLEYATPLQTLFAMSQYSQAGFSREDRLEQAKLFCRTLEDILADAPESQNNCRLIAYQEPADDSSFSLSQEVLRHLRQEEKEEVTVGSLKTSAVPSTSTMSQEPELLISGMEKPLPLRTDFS
Experimental: (§2) Digitonin Assay with 293T Reporter Cells. The generation of 293T reporter cells stably expressing different STING protein haplotypes (WT, HAQ, REF, AQ, or Q) was described previously (Novotna et al, J. Med. Chem. 2019,62, 10676). The cells were seeded at a density of 250 000 cells per cm^2 into 96 well white poly(D-lysine) coated plates in 100 µL of DMEM with high glucose supplemented with 10% heat inactivated FBS. Next day, the medium was removed, and compounds were added in 3-fold serial dilutions in a digitonin buffer containing 50 mM HEPES (pH 7.0), 100 mM KCl, 3 mM MgClz, 0.1 mM DTT, 85 mM sucrose, 0.2% (w/w) BSA, 1 mM ATP, 0.1 mM GTP, and 10 µg/mL digitonin A. After 30 min incubation at 37 °C with 5% CO2, the digitonin buffer was removed, cells were washed once with 100 µL of the cultivation medium, and 100 µL of fresh medium was added to each well. The plates with cells were further incubated for 5 h at 37 °C with 5% CO2. Thereafter, 50 µL of the medium was removed, and 30 µL of Bright-Glo Luciferase Assay System reagent was added to each well. […] Nonlinear regression curve fit with standard slope was used for EC50 value calculations. The EC50 value represents CDN concentration that gives half-maximal response of firefly luciferase in the 293T reporter assay.

[4] = biological target: T2, STING HAQ (Homo sapiens, UniProt Q86WV6, G230A/H232R/R293Q/R71H); assay: 293T STING digitonin reporter assay (HAQ haplotype); type: cell-based; conditions: digitonin permeabilised 293T reporter cells
T2 construct: expressed in transfected cells
T2 sequence (Q86WV6 whole entry R71H/G230A/H232R/R293Q): as the sequence (Q86WV6 whole entry H232R) above, with R71H, G230A, R293Q counted along it
Experimental: as §2

[5] = test system: 293T WT STING reporter cells expressing TROP2; assay: 293T WT STING reporter cells transiently expressing TROP2, luciferase; type: cell-based; conditions: free Warhead CDN, no antibody; TROP2+ 293T reporter cells
Experimental: as §1, with “IP-10.” for “IP-10. Twenty million 293T WT STING reporter cells were seeded into two T150 flasks, each containing 30 mL of DMEM with high glucose supplemented with 10% heat-inactivated FBS. One flask was designated for transfected cells, and the other served as a non-transfected control. After 24 hours, the cell culture medium was replaced with 27 mL of fresh media.”
EC50 values were calculated from an 8-point dose-response curve using GraphPad Prism (La Jolla, USA) with nonlinear regression curve fitting. The EC50 represents the concentration of the payload CDN 2.2 conjugated to anti-Her2 mAb2 or anti-TROP2 mAb5 that results in half-maximal levels of luminescence.

Nc1ncnc2c1ncn2[C@@H]1O[C@@H]2OCP(=O)(S)O[C@@H]3[C@H](F)[C@@H](COP(=O)(S)OC[C@H]2[C@H]1F)O[C@H]3n1cnc2c(=O)[nH]cnc21 (single isomer, unassigned) [Compound 2.2]
EC50 [1]: 1700 nM | frequency of tumor specific CD8 T cell recognizing AH1 peptide compared to the vehicle arm [2]: statistically significantly increased frequency | EC50 [3]: 20 nM | EC50 [4]: 20 nM | EC50 [5]: 700 nM
